Reference: US20190209501A1, “COMPOSITIONS AND METHODS OF USE OF BETA-HYDROXY-BETA-METHYLBUTYRATE (HMB) […] IN[…]” (Texas Tech University Office of Research Commercialization, priority 2018, published 2019)

Assays:
[1] = 1-repetition maximum and repetitions to failure, bench press and hip sled (leg press); format: in vivo, human; conditions: for 1RMBP (kg) Week 4 / 1RMBP (kg) Week 8: 1-repetition maximum bench press; for 1RMBP (kg) Week 4 / 1RMBP (kg) Week 8 / 1RMLP (kg) Week 8 / RTFBP (reps) Week 4 / RTFBP (reps) Week 8 / RTFLP (reps) Week 8: mean ± SE; for 1RMLP (kg) Week 8: 1-repetition maximum leg press; for 1RMBP Δ (%) / 1RMLP Δ (%) / RTFBP Δ (%) / RTFLP Δ (%): change baseline to week 8 relative to baseline; for RTFBP (reps) Week 4 / RTFBP (reps) Week 8: repetitions to failure bench press; for RTFBP (reps) Week 4 / RTFBP (reps) Week 8 / RTFLP (reps) Week 8: 70% of baseline 1-RM; for RTFLP (reps) Week 8: repetitions to failure leg press; for 1RMBP (kg) Δ / 1RMLP (kg) Δ / RTFBP (reps) Δ / RTFLP (reps) Δ: week 8 minus baseline
Text: Assessments of muscular performance took place between 12:00 and 18:00 in the non-fasted state, and participants were instructed to follow their preferred food and fluid intake patterns prior to testing. The assessment began with a 5-minute warm up period using a self-selected pace on a stationary bicycle. This warm up period was followed by assessment of countermovement vertical jumps (CMVJ) performance, testing on a mechanized squat device, and muscular strength and endurance assessment on the bench press and hip sled exercises. At the 4-week assessment, the CMVJ and hip sled assessments were not performed.
Resistance exercise performance for the bench press and hip sled exercises was evaluated via the 1-repetition maximum (1RM) and repetitions to failure with 70% of the 1RM. The 1RM testing protocol was based on the recommendations of the National Strength and Conditioning Association (33). Briefly, after completing warm up sets, participants completed 2 to 3 repetitions using a load estimated to be near-maximal. 1RM attempts then commenced, with the goal of obtaining the 1RM in between 3 and 5 attempts. Three minutes of rest were allowed between attempts. The maximal weight lifted with proper form was recorded as the 1RM. After the 1RM was obtained, a 3-minute rest period was allowed before repetitions to failure (RTF) were completed using 70% of the 1RM. For all participants, the bench press was tested before the leg press in order to allow for recovery of the lower body following the mechanized squat testing.

[2] = Muscle thickness of elbow flexors and knee extensors via ultrasonography; format: in vivo, human; conditions: for MTEF ES (d) / MTKE ES (d): Cohen's d baseline vs week 8; for MTEF Δ (%) / MTKE Δ (%): change baseline to week 8 relative to baseline; for MTEF (cm) Week 8: muscle thickness elbow flexors; for MTEF (cm) Week 8 / MTKE (cm) Week 8: mean ± SE; for MTKE (cm) Week 8: muscle thickness knee extensors; for MTEF (cm) Δ / MTKE (cm) Δ: week 8 minus baseline
Procedure: In addition to whole-body composition estimates, muscle thickness of the elbow flexors (MTEF) and knee extensors (MTKE) was evaluated via ultrasonography (Logiq e, General Electric. Boston, Mass. USA) at baseline and study completion. […] These distances were measured while the participant was standing, and measurement distances at baseline were recorded and used at the final assessment. All assessments took place on the right side of the body. In the supine position, the participant's arm was abducted to ˜80° with the arm supported for elbow flexor measurements. For knee extensor measurements, a foam pad was placed beneath the knee to allow an ˜10° bend at the knee joint. For all assessments, transmission gel was generously applied to the marked measurement location, and minimal pressure was applied by the transducer in order to avoid tissue compression. Three single transverse images were taken at each location, with values averaged for analysis. The gain and depth of the transducer were kept consistent for all measurements at a given site. Ultrasound images were blinded for analysis and analyzed by a single blinded researcher using ImageJ (v. 1.52a; National Institutes of Health, USA). The reliability of the researcher analyzing ultrasound images was determined through blinded analysis of 28 randomly selected ultrasound images on two occasions. This exercise produced minimum differences (MD) of 0.07 cm for MTEF and 0.14 cm for MTKE.

[3] = ITT analysis, Cohen's d baseline vs week 8
[4] = PP analysis, Cohen's d baseline vs week 8

Compound: CC(C)(O)CC(=O)O [TRFHMB, β-hydroxy-β-methylbutyrate]
- 1RMBP (kg) Week 4 ([1]; ITT analysis): 42.3 ± 2.4 kg
- 1RMBP (kg) Week 8 ([1]; ITT analysis): 47.3 ± 2.5 kg
- 1RMLP (kg) Week 8 ([1]; ITT analysis): 205.2 ± 15.0 kg
- 1RMLP ES (d) [1, 3]: 1.65
- RTFBP ES (d) [1, 3]: 1.91
- RTFLP ES (d) [1, 3]: 1.52
- 1RMBP Δ (%) ([1]; ITT analysis): 21%
- 1RMLP Δ (%) ([1]; ITT analysis): 57%
- RTFBP Δ (%) ([1]; ITT analysis): 68%
- RTFLP Δ (%) ([1]; ITT analysis): 145%
- RTFBP (reps) Week 4 ([1]; ITT analysis): 20.0 ± 1.6 reps
- RTFBP (reps) Week 8 ([1]; ITT analysis): 24.9 ± 1.8 reps
- RTFLP (reps) Week 8 ([1]; ITT analysis): 38.0 ± 5.4 reps
- 1RMBP (kg) Δ ([1]; ITT analysis): 8 kg
- 1RMLP (kg) Δ ([1]; ITT analysis): 75 kg
- RTFBP (reps) Δ ([1]; ITT analysis): 10 reps
- RTFLP (reps) Δ ([1]; ITT analysis): 23 reps
- Average ES for muscular endurance (RTFLP and RTFBP) ([1]; PP analysis only, vs 2.3 in CD): 1.5
- 1RMBP (kg) Week 4 ([1]; PP analysis): 43 ± 4 kg
- 1RMBP (kg) Week 8 ([1]; PP analysis): 48 ± 4 kg
- 1RMLP (kg) Week 8 ([1]; PP analysis): 220 ± 19 kg
- 1RMBP ES (d) [1, 4]: 0.76
- 1RMLP ES (d) [1, 4]: 1.80
- RTFBP ES (d) [1, 4]: 1.86
- RTFLP ES (d) [1, 4]: 1.27
- 1RMBP Δ (%) ([1]; PP analysis): 20%
- 1RMLP Δ (%) ([1]; PP analysis): 51%
- RTFBP Δ (%) ([1]; PP analysis): 79%
- RTFLP Δ (%) ([1]; PP analysis): 94%
- RTFBP (reps) Week 4 ([1]; PP analysis): 20 ± 2 reps
- RTFBP (reps) Week 8 ([1]; PP analysis): 25 ± 3 reps
- RTFLP (reps) Week 8 ([1]; PP analysis): 31 ± 6 reps
- 1RMBP (kg) Δ ([1]; PP analysis): 8 kg
- 1RMLP (kg) Δ ([1]; PP analysis): 74 kg
- RTFBP (reps) Δ ([1]; PP analysis): 11 reps
- RTFLP (reps) Δ ([1]; PP analysis): 15 reps
- MTEF ES (d) ([2]; ITT analysis): 0.68
- MTKE ES (d) ([2]; ITT analysis): 0.33
- MTEF Δ (%) ([2]; ITT analysis): 8%
- MTKE Δ (%) ([2]; ITT analysis): 5%
- MTEF (cm) Week 8 ([2]; ITT analysis): 2.96 ± 0.09 cm
- MTKE (cm) Week 8 ([2]; ITT analysis): 4.33 ± 0.16 cm
- MTEF (cm) Δ ([2]; ITT analysis): 0.22 cm
- MTKE (cm) Δ ([2]; ITT analysis): 0.19 cm
- MTEF ES (d) ([2]; PP analysis): 0.86
- MTKE ES (d) ([2]; PP analysis): 0.31
- MTEF Δ (%) ([2]; PP analysis): 9%
- MTKE Δ (%) ([2]; PP analysis): 4%
- MTEF (cm) Week 8 ([2]; PP analysis): 2.97 ± 0.10 cm
- MTKE (cm) Week 8 ([2]; PP analysis): 4.44 ± 0.20 cm
- MTEF (cm) Δ ([2]; PP analysis): 0.24 cm
- MTKE (cm) Δ ([2]; PP analysis): 0.17 cm
